From ChEMBL document CHEMBL4602617, “Discovery and optimization of heteroaryl piperazines as potent and selective PI3Kδ inhibitors” (Bioorg Med Chem Lett, 2020)

Key:
[1] = target: Non-receptor tyrosine-protein kinase TYK2 (Homo sapiens, UniProt P29597); test: Inhibition of recombinant human GST-tagged TYK2 catalytic domain (833 to 1187 residues) expressed in baculovirus expression system using tyrosine-3 peptide as substrate incubated for 60 mins in presence of ATP by Z'-LYTE assay
[2] = target: Serine/threonine-protein kinase haspin (Homo sapiens, UniProt Q8TF76); test: Inhibition of recombinant N-terminal GST tagged human GSG2 catalytic domain (471 to 798 residues) expressed in baculovirus expression system using Histone H3 (1-20) peptide as substrate after 1 hr in presence of ATP by ADAPTA assay
Sequence of Serine/threonine-protein kinase haspin (Q8TF76 whole entry, the tested form may be a part): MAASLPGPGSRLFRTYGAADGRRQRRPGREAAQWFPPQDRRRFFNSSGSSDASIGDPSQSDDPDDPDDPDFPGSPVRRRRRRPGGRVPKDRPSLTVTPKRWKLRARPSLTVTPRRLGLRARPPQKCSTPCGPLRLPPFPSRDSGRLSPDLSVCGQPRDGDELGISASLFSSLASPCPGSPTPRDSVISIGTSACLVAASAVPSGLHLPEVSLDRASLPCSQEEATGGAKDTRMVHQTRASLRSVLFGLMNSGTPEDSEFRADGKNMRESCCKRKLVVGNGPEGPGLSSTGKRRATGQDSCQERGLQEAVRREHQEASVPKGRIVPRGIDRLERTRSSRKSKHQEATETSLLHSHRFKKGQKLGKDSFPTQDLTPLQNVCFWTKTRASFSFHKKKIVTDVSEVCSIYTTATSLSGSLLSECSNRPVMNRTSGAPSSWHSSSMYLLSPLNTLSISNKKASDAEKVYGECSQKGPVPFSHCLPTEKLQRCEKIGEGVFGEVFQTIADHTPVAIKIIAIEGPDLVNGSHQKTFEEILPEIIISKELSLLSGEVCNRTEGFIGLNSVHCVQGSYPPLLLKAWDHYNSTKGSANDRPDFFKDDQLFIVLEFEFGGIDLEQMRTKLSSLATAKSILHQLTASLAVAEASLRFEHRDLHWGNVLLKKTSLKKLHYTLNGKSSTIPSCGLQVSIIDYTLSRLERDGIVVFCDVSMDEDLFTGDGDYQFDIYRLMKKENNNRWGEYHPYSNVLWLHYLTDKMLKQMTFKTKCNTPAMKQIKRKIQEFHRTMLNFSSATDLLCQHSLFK

[3] = target: Homeodomain-interacting protein kinase 2 (Homo sapiens, UniProt Q9H2X6); test: Inhibition of recombinant human GST-tagged HIPK2 expressed in baculovirus expression system using serine/threonine-9 peptide as substrate incubated for 60 mins in presence of ATP by Z'-LYTE assay
[4] = target: Serine/threonine-protein kinase TBK1 (Homo sapiens, UniProt Q9UHD2); test: Inhibition of recombinant full length human GST-tagged TBK1 expressed in insect expression system using serine/threonine-5 peptide as substrate incubated for 60 mins in presence of ATP by Z'-LYTE assay
Sequence of Serine/threonine-protein kinase TBK1 (Q9UHD2 whole entry): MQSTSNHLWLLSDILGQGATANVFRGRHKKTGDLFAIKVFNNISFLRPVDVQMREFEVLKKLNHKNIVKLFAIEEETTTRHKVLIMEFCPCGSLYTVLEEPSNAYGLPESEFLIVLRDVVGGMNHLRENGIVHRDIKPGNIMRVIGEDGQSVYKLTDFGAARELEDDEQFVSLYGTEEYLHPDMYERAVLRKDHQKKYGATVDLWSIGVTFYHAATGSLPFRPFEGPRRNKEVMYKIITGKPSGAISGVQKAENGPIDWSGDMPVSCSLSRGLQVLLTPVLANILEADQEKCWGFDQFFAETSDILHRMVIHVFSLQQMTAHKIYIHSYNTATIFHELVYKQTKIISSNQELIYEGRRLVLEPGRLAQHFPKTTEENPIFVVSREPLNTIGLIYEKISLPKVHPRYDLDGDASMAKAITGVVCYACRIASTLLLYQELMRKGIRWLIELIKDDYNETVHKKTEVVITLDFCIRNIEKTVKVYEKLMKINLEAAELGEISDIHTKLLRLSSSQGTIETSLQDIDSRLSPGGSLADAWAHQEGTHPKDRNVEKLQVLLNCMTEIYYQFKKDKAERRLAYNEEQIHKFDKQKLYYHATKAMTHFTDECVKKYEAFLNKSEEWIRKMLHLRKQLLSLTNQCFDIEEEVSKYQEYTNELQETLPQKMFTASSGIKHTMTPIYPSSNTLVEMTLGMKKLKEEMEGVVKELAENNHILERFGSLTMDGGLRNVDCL

[5] = target: B2 bradykinin receptor (Homo sapiens) (UniProt P30411); test: Displacement of [3H]bradykinin from recombinant full length human recombinant bradykinin B2 receptor expressed in Chem-1 cells at 10 uM measured after 60 mins by radiometric scintillation analysis relative to control; format: cell-based
Sequence of B2 bradykinin receptor (Homo sapiens) (P30411 whole entry): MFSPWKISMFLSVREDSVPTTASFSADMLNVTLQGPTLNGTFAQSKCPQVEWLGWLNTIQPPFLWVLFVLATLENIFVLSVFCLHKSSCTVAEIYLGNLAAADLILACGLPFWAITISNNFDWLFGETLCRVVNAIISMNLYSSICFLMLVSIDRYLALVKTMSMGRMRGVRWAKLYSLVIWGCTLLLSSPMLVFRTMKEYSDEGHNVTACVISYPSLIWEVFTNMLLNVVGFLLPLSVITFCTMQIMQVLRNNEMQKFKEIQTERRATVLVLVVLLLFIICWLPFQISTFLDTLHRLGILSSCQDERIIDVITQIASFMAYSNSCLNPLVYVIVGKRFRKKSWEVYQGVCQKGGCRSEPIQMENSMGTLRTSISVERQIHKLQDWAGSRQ

Aurora kinase B = Aurora kinase B (Homo sapiens, UniProt Q96GD4); test: Inhibition of recombinant full length His-tagged human AURKB expressed in baculovirus expression system using Ser/Thr-01 peptide as substrate incubated for 60 mins in presence of ATP by Z'-LYTE assay
Sequence of Aurora kinase B (Q96GD4 whole entry): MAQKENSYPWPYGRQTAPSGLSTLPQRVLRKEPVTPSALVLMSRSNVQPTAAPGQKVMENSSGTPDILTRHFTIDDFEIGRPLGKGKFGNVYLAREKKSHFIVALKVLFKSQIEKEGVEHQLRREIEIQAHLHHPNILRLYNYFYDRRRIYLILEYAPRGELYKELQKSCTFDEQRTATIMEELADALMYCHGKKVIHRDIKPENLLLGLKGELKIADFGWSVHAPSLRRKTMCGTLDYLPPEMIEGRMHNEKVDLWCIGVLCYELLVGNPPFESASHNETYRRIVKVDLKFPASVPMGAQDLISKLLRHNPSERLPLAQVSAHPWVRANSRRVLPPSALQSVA

[6] = target: Sodium-dependent dopamine transporter (Homo sapiens) (UniProt Q01959); test: Displacement of [125I]RTI-55 from full length recombinant human dopamine transporter expressed in CHO-S cells at 10 uM after 3 hrs by radiometric scintillation analysis relative to control; format: cell-based
Sequence of Sodium-dependent dopamine transporter (Homo sapiens) (Q01959 whole entry): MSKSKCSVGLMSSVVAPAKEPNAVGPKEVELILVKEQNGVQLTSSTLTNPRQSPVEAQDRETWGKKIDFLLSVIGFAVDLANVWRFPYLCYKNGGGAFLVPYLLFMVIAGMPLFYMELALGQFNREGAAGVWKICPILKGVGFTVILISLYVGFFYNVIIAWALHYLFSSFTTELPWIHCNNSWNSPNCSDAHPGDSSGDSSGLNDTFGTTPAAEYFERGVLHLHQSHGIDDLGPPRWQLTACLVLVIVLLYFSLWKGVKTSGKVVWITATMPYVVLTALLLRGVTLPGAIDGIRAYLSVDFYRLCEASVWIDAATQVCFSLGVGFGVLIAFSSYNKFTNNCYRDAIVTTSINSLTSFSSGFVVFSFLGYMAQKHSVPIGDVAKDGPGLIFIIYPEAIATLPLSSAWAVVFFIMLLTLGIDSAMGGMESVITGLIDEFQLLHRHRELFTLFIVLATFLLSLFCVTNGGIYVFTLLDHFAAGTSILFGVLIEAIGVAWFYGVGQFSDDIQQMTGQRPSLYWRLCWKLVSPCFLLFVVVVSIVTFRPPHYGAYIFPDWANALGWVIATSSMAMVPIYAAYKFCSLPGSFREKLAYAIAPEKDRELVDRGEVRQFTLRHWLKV

[7] = target: Calcitonin gene-related peptide type 1 receptor (Homo sapiens) (UniProt Q16602); test: Inhibition of human AM1 receptor at 10 uM relative to control
[8] = target: Vasopressin V1b receptor (Homo sapiens) (UniProt P47901); test: Displacement of [3H]-(Arg8)-Vasopressin from recombinant full length human V1B receptor expressed in CHO-K1 cells at 10 uM after 120 mins by radiometric scintillation analysis relative to control; format: cell-based
Sequence of Vasopressin V1b receptor (Homo sapiens) (P47901 whole entry): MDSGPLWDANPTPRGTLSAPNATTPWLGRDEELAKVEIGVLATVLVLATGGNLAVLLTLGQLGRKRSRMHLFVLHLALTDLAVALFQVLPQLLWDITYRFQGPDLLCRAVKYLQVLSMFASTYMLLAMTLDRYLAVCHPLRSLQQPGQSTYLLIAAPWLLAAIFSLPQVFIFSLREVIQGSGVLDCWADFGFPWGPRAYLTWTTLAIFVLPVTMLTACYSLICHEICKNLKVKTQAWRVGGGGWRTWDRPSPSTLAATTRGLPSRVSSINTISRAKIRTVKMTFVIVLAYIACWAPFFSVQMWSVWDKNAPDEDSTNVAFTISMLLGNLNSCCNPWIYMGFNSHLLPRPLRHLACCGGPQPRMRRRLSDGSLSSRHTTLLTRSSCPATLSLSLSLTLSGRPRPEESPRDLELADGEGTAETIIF

[9] = target: Proto-oncogene tyrosine-protein kinase Src (Homo sapiens, UniProt P12931); test: Inhibition of recombinant full length human His-tagged SRC expressed in baculovirus expression system using tyrosine-2 peptide as substrate incubated for 60 mins in presence of ATP by Z'-LYTE assay
AMPK alpha2/beta1/gamma1 = AMPK alpha2/beta1/gamma1 (Homo sapiens, UniProt P54619+P54646+Q9Y478); test: Inhibition of recombinant full length GST/His-tagged human AMPK alpha2/beta1/gamma1 expressed in baculovirus expression system using Ser/Thr-23 peptide as substrate incubated for 60 mins in presence of ATP by Z'-LYTE assay
[10] = target: Serine/threonine-protein kinase N1 (Homo sapiens, UniProt Q16512); test: Inhibition of recombinant full length GST-tagged human PKN1 expressed in baculovirus expression system using Ser/Thr 07 as substrate in presence of ATP after 1 hr by Z'-LYTE assay
[11] = target: Casein kinase I isoform epsilon (Homo sapiens, UniProt P49674); test: Inhibition of recombinant human full-length GST-tagged CSNK1E expressed in insect cells using FRET-labeled Ser/Thr 11 peptide as substrate measured after 1 hr in presence of ATP by Z'-lyte assay
[12] = target: Alpha-1B adrenergic receptor (Rattus norvegicus) (UniProt P15823); test: Displacement of [3H]prazosin from alpha1b adrenergic receptor in Wistar rat liver membranes at 10 uM measured after 60 mins by scintillation counting method relative to control; format: cell membranes; details: Membrane
[13] = target: cAMP-dependent protein kinase catalytic subunit alpha (Homo sapiens, UniProt P17612); test: Inhibition of recombinant human His-tagged PRKACA catalytic domain expressed in Escherichia coli using fluorophore-labeled serine/threonine-1 peptide as substrate incubated for 60 mins in presence of ATP by Z'-LYTE assay
[14] = target: Sodium channel protein type 5 subunit alpha (Homo sapiens, UniProt Q14524); test: Inhibition of Nav1.5 (unknown origin)
[15] = target: Receptor tyrosine-protein kinase erbB-4 (Homo sapiens, UniProt Q15303); test: Inhibition of recombinant human N-terminal GST-tagged ERBB4 catalytic domain (708 to 993 residues) expressed in baculovirus expression system using tyrosine-1 peptide as substrate incubated for 60 mins in presence of ATP by Z'-LYTE assay
[16] = target: Serine/threonine-protein kinase TAO2 (Homo sapiens, UniProt Q9UL54); test: Inhibition of recombinant human GST-tagged TAO2 catalytic domain (1 to 314 residues) expressed in baculovirus expression system using serine/threonine-7 peptide as substrate incubated for 60 mins in presence of ATP by Z'-LYTE assay
Sequence of Serine/threonine-protein kinase TAO2 (Q9UL54 whole entry, the tested form may be a part): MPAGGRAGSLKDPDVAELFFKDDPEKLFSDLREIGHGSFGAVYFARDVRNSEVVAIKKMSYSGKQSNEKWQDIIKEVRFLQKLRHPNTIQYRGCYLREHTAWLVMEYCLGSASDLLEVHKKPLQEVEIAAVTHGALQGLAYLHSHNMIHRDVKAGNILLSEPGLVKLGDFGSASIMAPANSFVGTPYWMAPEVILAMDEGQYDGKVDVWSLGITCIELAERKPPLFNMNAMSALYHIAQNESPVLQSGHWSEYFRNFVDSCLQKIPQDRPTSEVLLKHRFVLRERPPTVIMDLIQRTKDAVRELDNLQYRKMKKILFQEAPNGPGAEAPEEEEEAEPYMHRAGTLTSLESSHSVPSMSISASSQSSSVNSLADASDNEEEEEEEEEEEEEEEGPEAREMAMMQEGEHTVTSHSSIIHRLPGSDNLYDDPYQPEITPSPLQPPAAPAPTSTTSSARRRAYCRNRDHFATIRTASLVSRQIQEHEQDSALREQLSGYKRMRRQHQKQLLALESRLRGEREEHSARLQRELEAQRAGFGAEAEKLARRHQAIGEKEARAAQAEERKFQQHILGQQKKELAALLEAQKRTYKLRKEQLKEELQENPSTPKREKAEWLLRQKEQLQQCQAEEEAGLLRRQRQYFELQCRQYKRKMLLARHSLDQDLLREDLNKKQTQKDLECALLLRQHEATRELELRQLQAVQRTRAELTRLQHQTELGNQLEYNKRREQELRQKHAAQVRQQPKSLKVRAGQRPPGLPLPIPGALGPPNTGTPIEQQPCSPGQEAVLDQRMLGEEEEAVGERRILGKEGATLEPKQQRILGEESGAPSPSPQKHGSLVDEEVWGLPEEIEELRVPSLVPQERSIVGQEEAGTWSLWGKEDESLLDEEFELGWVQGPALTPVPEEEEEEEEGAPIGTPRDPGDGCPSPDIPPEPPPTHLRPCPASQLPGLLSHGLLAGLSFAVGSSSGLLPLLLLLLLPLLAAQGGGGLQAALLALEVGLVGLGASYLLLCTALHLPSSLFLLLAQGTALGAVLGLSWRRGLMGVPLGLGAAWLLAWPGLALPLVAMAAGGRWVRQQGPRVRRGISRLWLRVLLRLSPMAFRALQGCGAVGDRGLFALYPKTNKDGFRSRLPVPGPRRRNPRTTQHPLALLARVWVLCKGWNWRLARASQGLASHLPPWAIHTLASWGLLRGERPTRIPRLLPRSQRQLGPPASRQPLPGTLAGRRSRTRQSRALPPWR

[17] = target: 5-hydroxytryptamine receptor 1A (Homo sapiens) (UniProt P08908); test: Displacement of [3H]-8-OH-DPAT from full length human recombinant 5HT1A receptor expressed in CHOK-1 cells at 10 uM measured after 60 mins by radiometric scintillation analysis relative to control; format: cell-based
[18] = target: Epidermal growth factor receptor (Homo sapiens, UniProt P00533, L858R/T790M); test: Inhibition of human recombinant GST-tagged EGFR L858R/T790M mutant expressed in baculovirus expression system using tyrosine 4 peptide as substrate after 60 mins in presence of ATP FRET based Z'-LYTE assay
[19] = target: Mitogen-activated protein kinase kinase kinase 8 (Homo sapiens, UniProt P41279); test: Inhibition of recombinant human GST-tagged MAP3K8 catalytic domain expressed in baculovirus expression system using serine/threonine-3 peptide as substrate incubated for 60 mins in presence of ATP by Z'-LYTE assay
Sequence of Mitogen-activated protein kinase kinase kinase 8 (P41279 whole entry, the tested form may be a part): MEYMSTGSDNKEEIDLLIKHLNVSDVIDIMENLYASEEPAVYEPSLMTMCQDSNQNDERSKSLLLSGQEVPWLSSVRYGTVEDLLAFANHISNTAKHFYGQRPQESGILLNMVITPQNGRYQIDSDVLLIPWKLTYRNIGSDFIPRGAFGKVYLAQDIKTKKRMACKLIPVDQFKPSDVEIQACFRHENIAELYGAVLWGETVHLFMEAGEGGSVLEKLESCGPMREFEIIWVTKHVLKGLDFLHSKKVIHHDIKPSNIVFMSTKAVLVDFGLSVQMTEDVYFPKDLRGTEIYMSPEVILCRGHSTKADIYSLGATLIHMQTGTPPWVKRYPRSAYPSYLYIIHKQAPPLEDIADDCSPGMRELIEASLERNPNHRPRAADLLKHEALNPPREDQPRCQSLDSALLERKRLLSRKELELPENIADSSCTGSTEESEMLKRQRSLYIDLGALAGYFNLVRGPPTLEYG

[20] = target: RAC-beta serine/threonine-protein kinase (Homo sapiens, UniProt P31751); test: Inhibition of recombinant full length human His-tagged AKT2 expressed in baculovirus expression system using Ser/Thr-06 peptide as substrate incubated for 60 mins in presence of ATP by Z'-LYTE assay
[21] = target: Ribosomal protein S6 kinase alpha-2 (Homo sapiens, UniProt Q15349); test: Inhibition of recombinant full length human GST-tagged RPS6KA2 expressed in insect expression system using Ser/Thr 06 peptide as substrate incubated for 60 mins in presence of ATP by Z'-LYTE assay
Rattus norvegicus = species: Rattus norvegicus; test: Displacement of [3H]hemicholinium-3 from choline transporter in Wistar rat striatal membranes at 10 uM after 20 mins by radiometric scintillation analysis relative to control; format: cell membranes; details: Striatum, Membrane
[22] = target: Cholecystokinin receptor type A (Homo sapiens) (UniProt P32238); test: Displacement of [3H]L-364,718 from recombinant full length human recombinant CCK1 expressed in 1321-N1 cells at 10 uM measured after 60 mins by radiometric scintillation analysis relative to control; format: cell-based

C[C@@H]1C[C@H]1C(=O)N1CCN(c2cnc(C#N)c(-c3cnn(C)c3)n2)C[C@H]1C
IC50 [1]: > 100 µM
IC50 [2]: > 100 µM
IC50 [3]: > 100 µM
IC50 [4]: > 100 µM
inhibition [5]: 6%
IC50 (Aurora kinase B): > 100 µM
inhibition [6]: 1%
inhibition [7]: 10%
inhibition [8]: 6%
IC50 [9]: > 100 µM
IC50 (AMPK alpha2/beta1/gamma1): > 100 µM
IC50 [10]: > 100 µM
IC50 [11]: > 100 µM
inhibition [12]: -1%
IC50 [13]: > 100 µM
IC50 [14]: > 30 µM
IC50 [15]: > 100 µM
IC50 [16]: > 100 µM
inhibition [17]: 9%
IC50 [18]: > 100 µM
IC50 [19]: > 100 µM
IC50 [20]: > 100 µM
IC50 [21]: > 100 µM
inhibition (Rattus norvegicus): -8%
inhibition [22]: 3%
